Measurements: paper PMC8232238 (Cells, 2021)
Read-outs that look alike come from different tables or passages of the source.

Key:
HDAC1 [1] = target: T1, HDAC1 (Homo sapiens, UniProt Q13547); parameters: method as in PMID 30168823; conditions: Figure 2; cited from earlier work
T1 construct: purchased Reaction Biology corporation (contract assay)

HDAC6 = target: T2, HDAC6 (Homo sapiens, UniProt Q9UBN7); parameters: method as in PMID 30168823; conditions: Figure 2; cited from earlier work
T2 construct: purchased Reaction Biology corporation (contract assay)
T2 sequence (Q9UBN7 1-1215): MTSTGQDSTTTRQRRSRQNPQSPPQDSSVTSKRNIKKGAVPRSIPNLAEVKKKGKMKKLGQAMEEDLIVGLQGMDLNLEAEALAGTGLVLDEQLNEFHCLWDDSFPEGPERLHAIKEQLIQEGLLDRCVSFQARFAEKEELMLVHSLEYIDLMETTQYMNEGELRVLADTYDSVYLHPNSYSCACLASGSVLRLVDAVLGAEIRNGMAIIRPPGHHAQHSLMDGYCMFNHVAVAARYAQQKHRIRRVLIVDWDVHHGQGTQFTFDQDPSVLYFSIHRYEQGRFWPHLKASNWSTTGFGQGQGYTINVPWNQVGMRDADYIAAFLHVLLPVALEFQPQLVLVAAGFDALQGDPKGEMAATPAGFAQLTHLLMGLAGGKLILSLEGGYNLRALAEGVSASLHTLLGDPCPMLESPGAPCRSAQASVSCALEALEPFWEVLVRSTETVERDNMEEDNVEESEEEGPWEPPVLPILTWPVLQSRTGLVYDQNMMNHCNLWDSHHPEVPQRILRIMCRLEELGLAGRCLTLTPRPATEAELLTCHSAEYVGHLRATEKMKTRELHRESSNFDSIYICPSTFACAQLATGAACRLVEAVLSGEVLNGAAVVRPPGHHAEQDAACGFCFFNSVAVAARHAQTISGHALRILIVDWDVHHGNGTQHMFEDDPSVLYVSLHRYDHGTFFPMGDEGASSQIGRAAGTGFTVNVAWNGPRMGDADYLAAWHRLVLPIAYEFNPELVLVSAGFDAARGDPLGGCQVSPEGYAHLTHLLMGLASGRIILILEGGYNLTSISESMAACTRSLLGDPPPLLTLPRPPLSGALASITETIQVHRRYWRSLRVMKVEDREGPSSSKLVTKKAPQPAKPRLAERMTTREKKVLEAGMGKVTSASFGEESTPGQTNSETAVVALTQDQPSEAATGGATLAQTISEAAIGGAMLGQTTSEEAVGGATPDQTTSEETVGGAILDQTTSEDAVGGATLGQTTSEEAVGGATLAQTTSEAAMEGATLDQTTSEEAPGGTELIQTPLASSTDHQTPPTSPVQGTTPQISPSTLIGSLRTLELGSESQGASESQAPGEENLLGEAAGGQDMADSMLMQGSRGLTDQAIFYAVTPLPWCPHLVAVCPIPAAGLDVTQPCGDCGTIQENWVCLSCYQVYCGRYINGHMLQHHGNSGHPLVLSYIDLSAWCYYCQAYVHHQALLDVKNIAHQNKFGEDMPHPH

[2] = tested on: acetylated tubulin in A549 cells; experiment: Tubulin acetylation in A549 cells, immunostaining with high content imaging; type: cell-based, human; conditions: 24 h; for Concentration from which tubulin acetylation was significantly increased: compared to untreated cells
Experimental: (§1) To confirm the observed activities of the selected test compounds against HDAC6, the acetylation status of tubulin in the human lung cancer cell line A549 was investigated by immunostaining combined with automated high content image analysis (see supplementary material for full details). […] The apparent drop in histone acetylation by both compounds above 10 μM is indicative of a potential cytotoxicity at higher concentrations (data not shown).
(§2) Figure 5 Cell-based assessment of HDAC activity and selectivity. Dose and time-dependency of tubulin and histone acetylation by test compounds. A549 cells were treated with (A,B) different concentrations (0–50 µM) of CF011, KNH019 and tubastatin for 24 h or with (C,D) 1 µM over different time intervals before (A,C) tubulin acetylation or (B,D) histone acetylation were automatically quantified using high content imaging. Data represent the average of four independent experiments with four replicate wells/experiments. The statistical significances of effects compared to the untreated control were analysed using Brown–Forsythe and Welch one-way ANOVA analyses using Graph Pad Prism. The significance was set as * 0.05 > p ≥ 0.01, ** 0.01 > p ≥ 0.002. Error bars represent the Standard Error of Mean (SEM). (E) Representative fluorescence images show tubulin acetylation (yellow), histone acetylation (red) and nuclear counterstain (DAPI, blue) after 24 h of exposure to test compounds. Secondary antibodies were detected using excitation/emission filters for CY3 (excitation: 542/27 nm, emission: 597/45 nm), CY5 (excitation: 632/22 nm, emission: 684/25 nm) and DAPI (excitation: 390/18 nm, emission: 435/48 nm), respectively. […]
(§3) S2.2 Cell Culture, Treatment and Immunostaining:
(§4) A549 cells (ATCC® CCL-185™, In Vitro Technologies Pty. Ltd., Victoria, Australia) were cultured in low glucose Dulbecco’s Modified Eagle Media (DMEM, 1 g/L glucose, 0.584 g/L L-glutamine, 3.7 g/L sodium bicarbonate, 10 % fetal bovine serum) under standard conditions (> 90 % humidity, 37 °C temperature, 5 % CO 2). For experiments, 5,000 cells/ well were seeded in 100 µl serum free DMEM in 384 well plates (µCLEAR®, Greiner) and left to adhere for 24 hours before the treatment. Cells were treated with 100 µl of test compound -containing media for up to 24 hours before cells were fixed with 4 % paraformaldehyde (PFA) solution in PBS (10 minutes at room temperature (RT)) and permeabi lized with 50 µl of 0.5 % Triton X -100 in PBS. Subsequently, cells were blocked in PBST (5% fetal bovine serum, 5% bovine serum albumin, 5% goat serum, 0.1% Tween 20 in PBS) before stained with anti - acetylated tubulin (T7451, Sigma Aldrich; 1:1,000) and an ti-acetylated histone antibody (ab47915, Abcam; 1:1,000) overnight at 4 °C. Subsequently, cells were exposed to secondary antibodies (goat anti-mouse Alexa fluor 594 (Invitrogen; 1:10,000) and goat anti -rabbit Alexa fluor 647 (Invitrogen; 1:10,000) in PBST ) and DAPI solution (Invitrogen; 1:10,000 in PBST) before images were acquired.
(§5) Fluorescence images were acquired (10x magnification, 2 -D format) using the InCell 2200 high content imaging system (V7.3, GE Healthcare life sciences) wi th CY3 (excitation: 542/27 nm, emission: 597/45 nm), CY5 (excitation: 632/22 nm, emission: 684/25 nm) and DAPI (excitation: 390/18 nm, emission:
435/48 nm) filters. Two images/well at predefined positions were automatically acquired with 4 replicate wells for each treatment condition/ experiment. At least 3 independent experiments were conducted for each condition. Acquired images were automatically processed using InCarta software (v1.6, GE Healthcare life sciences). All images were manually checked for ar tefacts. Images with less than 30 cells were excluded from the analysis. Excel and GraphPad Prism was used for statistical analysis and graphical representation. Data was expressed as % Relative Fluorescence Units (RFU) […]

[3] = tested on: acetylated histone in A549 cells; experiment: Histone acetylation in A549 cells, immunostaining with high content imaging; type: cell-based, human; conditions: 24 h; for Concentration from which histone acetylation was significantly increased: compared to untreated cells
Experimental: as §1, §2, §3, §4, §5
435/48 nm) filters. […] Data was expressed as % Relative Fluorescence Units (RFU) […]

HDAC1 [4] = target: T1, HDAC1; conditions: previously reported 4-amino analogues; cited from earlier work
HDAC3 = target: T3, HDAC3 (Homo sapiens, UniProt O15379); conditions: previously reported 4-amino analogues; cited from earlier work
T3 construct: purchased Reaction Biology corporation (contract assay)

HDAC8 = target: T4, HDAC8 (Homo sapiens, UniProt Q9BY41); conditions: previously reported 4-amino analogues; cited from earlier work
T4 construct: purchased Reaction Biology corporation (contract assay)
T4 sequence (Q9BY41 1-377): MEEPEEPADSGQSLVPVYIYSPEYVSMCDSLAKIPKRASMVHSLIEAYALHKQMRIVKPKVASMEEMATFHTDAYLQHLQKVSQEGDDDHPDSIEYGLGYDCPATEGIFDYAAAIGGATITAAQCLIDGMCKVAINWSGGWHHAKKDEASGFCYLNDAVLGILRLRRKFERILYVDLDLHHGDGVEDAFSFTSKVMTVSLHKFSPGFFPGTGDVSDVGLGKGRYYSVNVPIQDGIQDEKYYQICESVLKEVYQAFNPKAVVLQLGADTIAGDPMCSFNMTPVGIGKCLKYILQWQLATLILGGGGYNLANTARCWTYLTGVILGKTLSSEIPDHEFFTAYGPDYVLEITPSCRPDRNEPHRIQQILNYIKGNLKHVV

HDAC11 = target: T5, HDAC11 (Homo sapiens, UniProt Q96DB2); conditions: previously reported 4-amino analogues; cited from earlier work
T5 construct: purchased Reaction Biology corporation (contract assay)
T5 sequence (Q96DB2 1-347): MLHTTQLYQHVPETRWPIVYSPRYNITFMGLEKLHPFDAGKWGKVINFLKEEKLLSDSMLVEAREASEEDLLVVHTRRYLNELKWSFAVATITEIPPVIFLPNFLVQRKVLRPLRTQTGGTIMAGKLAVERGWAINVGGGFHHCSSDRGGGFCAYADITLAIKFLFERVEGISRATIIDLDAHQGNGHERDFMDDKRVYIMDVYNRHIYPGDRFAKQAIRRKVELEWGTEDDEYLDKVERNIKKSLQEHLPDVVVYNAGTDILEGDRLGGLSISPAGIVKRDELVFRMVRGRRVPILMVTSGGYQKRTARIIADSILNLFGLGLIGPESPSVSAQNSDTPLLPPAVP

T1 sequence (Q13547 whole entry): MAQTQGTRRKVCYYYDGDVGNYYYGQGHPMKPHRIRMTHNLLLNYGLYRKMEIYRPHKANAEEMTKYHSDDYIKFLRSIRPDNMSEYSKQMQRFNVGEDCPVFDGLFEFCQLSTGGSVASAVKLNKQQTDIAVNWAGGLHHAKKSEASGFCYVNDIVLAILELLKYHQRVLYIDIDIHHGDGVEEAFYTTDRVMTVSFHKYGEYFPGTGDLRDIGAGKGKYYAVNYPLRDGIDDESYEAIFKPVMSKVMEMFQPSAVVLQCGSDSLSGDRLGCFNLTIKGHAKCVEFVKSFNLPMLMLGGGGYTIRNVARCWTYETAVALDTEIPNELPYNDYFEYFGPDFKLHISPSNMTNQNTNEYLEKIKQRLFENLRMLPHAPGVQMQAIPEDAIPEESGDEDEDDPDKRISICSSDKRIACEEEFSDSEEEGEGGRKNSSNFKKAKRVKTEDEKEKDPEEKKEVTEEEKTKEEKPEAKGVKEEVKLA
T3 sequence (O15379 whole entry): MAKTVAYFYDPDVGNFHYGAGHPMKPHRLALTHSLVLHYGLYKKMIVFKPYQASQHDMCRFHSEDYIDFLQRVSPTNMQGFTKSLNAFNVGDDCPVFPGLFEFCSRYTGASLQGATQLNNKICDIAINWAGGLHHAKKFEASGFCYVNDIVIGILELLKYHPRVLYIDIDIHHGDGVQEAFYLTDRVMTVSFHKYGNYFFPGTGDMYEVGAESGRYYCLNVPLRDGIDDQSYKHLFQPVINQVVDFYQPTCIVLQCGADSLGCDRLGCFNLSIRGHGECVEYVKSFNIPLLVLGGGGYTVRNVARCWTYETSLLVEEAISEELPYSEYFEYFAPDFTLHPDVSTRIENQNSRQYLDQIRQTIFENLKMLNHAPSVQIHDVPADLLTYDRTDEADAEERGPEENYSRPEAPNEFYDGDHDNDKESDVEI
T3 sequence (Q9Y618 395-489 partner limits assumed): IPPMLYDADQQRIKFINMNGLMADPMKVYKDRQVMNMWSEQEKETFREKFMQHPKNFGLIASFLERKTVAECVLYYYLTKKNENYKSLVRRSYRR

Row | SMILES | IC50 (HDAC1 [1]) [nM] | Selectivity factor (SF) = HDAC1 IC50/HDAC6 IC50 (HDAC1 [1]) | IC50 (HDAC6) [nM] | Concentration from which tubulin acetylation was significantly increased [2] | Concentration from which histone acetylation was significantly increased [3] | Selectivity factor (SF) = HDAC1 IC50/HDAC6 IC50 (HDAC1 [4]) | IC50 (HDAC3) [nM] | Selectivity factor (SF) HDAC3 against HDAC6 (HDAC3) | Selectivity factor (SF) HDAC8 against HDAC6 (HDAC8) | Selectivity factor (SF) HDAC11 against HDAC6 (HDAC11) | Increase of tubulin acetylation compared to untreated cells (up to) ([2]; 0-50 µM, dose-dependent) [fold] | Tubulin acetylation in representative immunostaining images ([2]; 10 µM) | Histone acetylation in representative immunostaining images ([3]; 10 µM)
1 | COc1cc2c3c(cccc3c1)C(=O)N(Cc1ccc(C(=O)NO)cc1)C2=O [Compound 3] | 33 | 412 | 0.08 |  |  |  |  |  |  |  |  |  | 
2 | CN1CCc2c(c3ccccc3n2Cc2ccc(C(=O)NO)cc2)C1 [tubastatin] |  |  |  | 10^−3 mM | 10^−3 mM |  |  |  |  |  |  |  | 
3 | CCCNc1ccc2c3c(cccc13)C(=O)N(CCCCCC(=O)NO)C2=O [CF010] |  |  |  |  |  | 123 | 110 ± 4 | 23 | 317 | 16 |  |  | 
4 | O=C(CCCCCN1C(=O)c2cccc3c(NCc4ccccc4)ccc(c23)C1=O)NO [CF011] |  |  |  | 10^−9 mM | 10^−6 mM | 566 | 360 ± 0.7 | 103 | 703 | 43 | ~1.5 | strongly induce | strongly induce
